According to ChEMBL document CHEMBL1201862, “PubChem BioAssay data set” (2004):
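Briefly, cells in 96-well plates were exposed to five compound concentrations for 48 h, and endpoints were estimated by linear interpolation. GI50 is the concentration that inhibits growth by half.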 Activity calls are given as the source filed them. No stated cut-off is given here; in the data, active = GI50 up to about 1.1 µM and inactive = higher.

What was measured:
Assay in all cases: DTP human tumour cell line panel, 48 h
UO-31 = tested on: UO-31
HOP-92 = tested on: HOP-92
HCC 2998 = tested on: HCC 2998
HL-60 = tested on: HL-60
OVCAR-3 = tested on: OVCAR-3
MOLT-4 = tested on: MOLT-4
A549 = tested on: A549
OVCAR-8 = tested on: OVCAR-8
SW-620 = tested on: SW-620
SK-MEL-28 = tested on: SK-MEL-28
RXF 393 = tested on: RXF 393
UACC-257 = tested on: UACC-257
786-0 = tested on: 786-0
M14 = tested on: M14
SF-268 = tested on: SF-268
SNB-75 = tested on: SNB-75
MDA-MB-231 = tested on: MDA-MB-231
HCT-15 = tested on: HCT-15
NCI-H226 = tested on: NCI-H226

| Compound | GI50 (UO-31) | GI50 (HOP-92) | GI50 (HCC 2998) | GI50 (HL-60) | GI50 (OVCAR-3) | GI50 (MOLT-4) | GI50 (A549) | GI50 (OVCAR-8) | GI50 (SW-620) | GI50 (SK-MEL-28) | GI50 (RXF 393) | GI50 (UACC-257) | GI50 (786-0) | GI50 (M14) | GI50 (SF-268) | GI50 (SNB-75) | GI50 (MDA-MB-231) | GI50 (HCT-15) [µM] | GI50 (NCI-H226) |
| --- | --- | --- | --- | --- | --- | --- | --- | --- | --- | --- | --- | --- | --- | --- | --- | --- | --- | --- | --- |
| c1ccc2c(-c3csc(-c4c[nH]c5ccccc45)n3)c[nH]c2c1 | > 48.1 µM (inactive) | > 100 µM (inactive) | > 100 µM (inactive) | 14.4 µM (inactive) | > 100 µM (inactive) | 4.86 µM (inactive) | 96.8 µM (inactive) | > 100 µM (inactive) | > 100 µM (inactive) | > 100 µM (inactive) | > 100 µM (inactive) | > 100 µM (inactive) | > 65 µM (inactive) | > 100 µM (inactive) | > 100 µM (inactive) | > 22.4 µM (inactive) | > 67.8 µM (inactive) | > 100 | > 100 µM (inactive) |
| COc1cc2[nH]c(=O)c3cc(-c4ccccc4)cc4c(Cl)nc(c1OC)c2c43 | 19.2 µM (inactive) | 41.8 µM (inactive) | 23.6 µM (inactive) | 2.17 µM (inactive) | 3.79 µM (inactive) | 4.63 µM (inactive) | 23.2 µM (inactive) | 5.14 µM (inactive) | 3.37 µM (inactive) | 32.1 µM (inactive) | 23.3 µM (inactive) | 4.69 µM (inactive) | 6.59 µM (inactive) | 19.4 µM (inactive) | 16.1 µM (inactive) | > 39.4 µM (inactive) | 3.64 µM (inactive) | 9.55 | > 70.1 µM (inactive) |
| CC(C)(C)OC(=O)NC(Cc1ccc(O)cn1)C(=O)O (stereo not drawn) | > 100 µM (inactive) | > 100 µM (inactive) | > 100 µM (inactive) | > 100 µM (inactive) | > 100 µM (inactive) | > 100 µM (inactive) | > 100 µM (inactive) | > 100 µM (inactive) | > 100 µM (inactive) | > 100 µM (inactive) | > 100 µM (inactive) | > 100 µM (inactive) | > 100 µM (inactive) | – | > 100 µM (inactive) | > 100 µM (inactive) | > 100 µM (inactive) | > 100 | > 100 µM (inactive) |
| NC(Cc1ccc(N(CCCl)CCCl)cc1)C(=O)NC(CCC(=O)O)C(=O)O (stereo not drawn) | > 100 µM (inactive) | > 100 µM (inactive) | > 100 µM (inactive) | > 100 µM (inactive) | > 100 µM (inactive) | > 100 µM (inactive) | > 100 µM (inactive) | > 100 µM (inactive) | > 100 µM (inactive) | > 100 µM (inactive) | > 100 µM (inactive) | > 100 µM (inactive) | > 100 µM (inactive) | > 100 µM (inactive) | > 100 µM (inactive) | > 100 µM (inactive) | > 100 µM (inactive) | > 100 | > 100 µM (inactive) |
| O=C1c2ccccc2C(=O)c2c(NCC3CO3)ccc(NCC3CO3)c21 (stereo not drawn) | 1.87 µM (inactive) | 10.3 µM (inactive) | 9.1 µM (inactive) | < 0.01 µM (active) | 4.54 µM (inactive) | 0.0119 µM (active) | 2.4 µM (inactive) | 0.63 µM (active) | 1.22 µM (inactive) | 2.71 µM (inactive) | 2.21 µM (inactive) | 7.08 µM (inactive) | 0.766 µM (active) | 0.682 µM (active) | 0.254 µM (active) | 26.7 µM (inactive) | 3.3 µM (inactive) | 3.47 | 8.59 µM (inactive) |
| NCCCCNCCCNC(=O)CNC(=O)CC(O)C(N)CCCC(NC(=O)C(CN)NC(=O)C(O)CNC(=O)CC(N)c1ccc(O)cc1)C(=O)O (stereo not drawn) | > 10 µM (inactive) | > 10 µM (inactive) | > 10 µM (inactive) | > 10 µM (inactive) | > 10 µM (inactive) | > 10 µM (inactive) | > 10 µM (inactive) | > 10 µM (inactive) | – | > 10 µM (inactive) | > 10 µM (inactive) | > 10 µM (inactive) | > 10 µM (inactive) | > 10 µM (inactive) | > 10 µM (inactive) | > 10 µM (inactive) | > 10 µM (inactive) | > 10 | > 10 µM (inactive) |
| CCOP(=O)(OCC)C(F)(F)CC1CCCCC1 | > 10 µM (inactive) | > 10 µM (inactive) | > 10 µM (inactive) | > 10 µM (inactive) | > 10 µM (inactive) | > 10 µM (inactive) | > 10 µM (inactive) | > 10 µM (inactive) | > 10 µM (inactive) | > 10 µM (inactive) | > 10 µM (inactive) | > 10 µM (inactive) | > 10 µM (inactive) | > 10 µM (inactive) | > 10 µM (inactive) | 4.38 µM (inactive) | > 10 µM (inactive) | > 10 | > 10 µM (inactive) |
| CC(C)NC(=O)OCc1c(COC(=O)NC(C)C)n(C)c2c1ccc1ccsc12 | 7.1 µM (inactive) | 10.1 µM (inactive) | 14.4 µM (inactive) | 2.69 µM (inactive) | 13.9 µM (inactive) | 1.71 µM (inactive) | 9.98 µM (inactive) | 9.59 µM (inactive) | 5.19 µM (inactive) | 12.6 µM (inactive) | 6.98 µM (inactive) | 13.5 µM (inactive) | 6.46 µM (inactive) | 8.3 µM (inactive) | 4.38 µM (inactive) | 6.78 µM (inactive) | 16.7 µM (inactive) | 9.25 | 7.41 µM (inactive) |
| Cc1cc(C)n(CC(Cn2nc(C)cc2C)=C(/C(Cl)=C(/Cl)Nc2ccc([N+](=O)[O-])cc2)[N+](=O)[O-])n1 | 2.74 µM (inactive) | 2.47 µM (inactive) | 3.52 µM (inactive) | 1.54 µM (inactive) | 4 µM (inactive) | 1.79 µM (inactive) | 3.43 µM (inactive) | 3.35 µM (inactive) | 2.42 µM (inactive) | 7.06 µM (inactive) | 3.59 µM (inactive) | 3.4 µM (inactive) | 5.06 µM (inactive) | 4.37 µM (inactive) | 5.01 µM (inactive) | 4.67 µM (inactive) | 6.05 µM (inactive) | 4.73 | 10.2 µM (inactive) |
| Cc1cc2nc(O)c(C(C)C(=O)c3ccc(Cl)cc3)nc2cc1C (stereo not drawn) | 46.9 µM (inactive) | 59.3 µM (inactive) | 13.5 µM (inactive) | 21.2 µM (inactive) | 49.1 µM (inactive) | 27.7 µM (inactive) | 39.8 µM (inactive) | 32.5 µM (inactive) | 28.8 µM (inactive) | 50.8 µM (inactive) | 41.3 µM (inactive) | 16.6 µM (inactive) | 27.6 µM (inactive) | 45.6 µM (inactive) | 47.5 µM (inactive) | 35.4 µM (inactive) | 36.7 µM (inactive) | 44.7 | 35 µM (inactive) |
| CCCCC(=O)Nc1ccc2cc(C(=O)OC)c(Cl)nc2n1 | 19.9 µM (inactive) | > 100 µM (inactive) | 10.9 µM (inactive) | 2.58 µM (inactive) | 7.59 µM (inactive) | > 100 µM (inactive) | > 100 µM (inactive) | > 100 µM (inactive) | > 100 µM (inactive) | > 76.4 µM (inactive) | > 100 µM (inactive) | 43.7 µM (inactive) | > 100 µM (inactive) | > 100 µM (inactive) | > 100 µM (inactive) | > 100 µM (inactive) | > 100 µM (inactive) | > 100 | > 100 µM (inactive) |
| Clc1ncnc2c1nc(C#Cc1ccccc1)n2Cc1ccccc1 | 2.14 µM (inactive) | 27.1 µM (inactive) | 11.4 µM (inactive) | 7.83 µM (inactive) | 3.99 µM (inactive) | 3.34 µM (inactive) | 84.9 µM (inactive) | 12.7 µM (inactive) | 4.09 µM (inactive) | 18.8 µM (inactive) | 16.3 µM (inactive) | 25.8 µM (inactive) | 13.7 µM (inactive) | 19.1 µM (inactive) | 40.9 µM (inactive) | 25.8 µM (inactive) | 26.7 µM (inactive) | 4.81 | 45.3 µM (inactive) |
| NC1=CN(CCCO)C2=N/C(=C\c3ccccc3)C(=O)N12 | > 100 µM (inactive) | > 100 µM (inactive) | > 100 µM (inactive) | 42.9 µM (inactive) | > 100 µM (inactive) | > 100 µM (inactive) | > 100 µM (inactive) | > 100 µM (inactive) | > 100 µM (inactive) | > 100 µM (inactive) | > 100 µM (inactive) | > 100 µM (inactive) | > 100 µM (inactive) | > 100 µM (inactive) | > 100 µM (inactive) | > 100 µM (inactive) | > 100 µM (inactive) | > 100 | > 100 µM (inactive) |
| CC(=O)Oc1ccc2cc(Oc3cc(Cl)c(Cl)cc3Cl)c(=O)oc2c1 | 13.1 µM (inactive) | 17.8 µM (inactive) | 17.1 µM (inactive) | 22.7 µM (inactive) | 16 µM (inactive) | 11.9 µM (inactive) | 16.4 µM (inactive) | 17.1 µM (inactive) | 14.8 µM (inactive) | 26.2 µM (inactive) | 14.6 µM (inactive) | 20.6 µM (inactive) | 15.6 µM (inactive) | 18.2 µM (inactive) | 26.9 µM (inactive) | 19.6 µM (inactive) | 16.4 µM (inactive) | 13.1 | 16.9 µM (inactive) |
| Nc1ncc(Cc2nn3c(COc4ccc(Cl)cc4)nnc3s2)s1 | > 100 µM (inactive) | > 100 µM (inactive) | > 100 µM (inactive) | > 100 µM (inactive) | > 100 µM (inactive) | > 100 µM (inactive) | > 100 µM (inactive) | > 100 µM (inactive) | > 100 µM (inactive) | > 100 µM (inactive) | > 100 µM (inactive) | > 100 µM (inactive) | > 100 µM (inactive) | > 100 µM (inactive) | > 100 µM (inactive) | > 100 µM (inactive) | > 100 µM (inactive) | 0.748 | > 100 µM (inactive) |
